Reference: US20240019429A1, “METHODS AND RELATED ASPECTS FOR DETERMINING BINDING KINETICS OF LIGANDS” (ARIZONA BOARD OF REGENTS ON BEHALF OF ARIZONA STATE …, priority 2022, published 2024)

Key:
[1] = biological target: T1, calmodulin (Homo sapiens, UniProt P0DP23); assay: SPR-OBL equilibrium analysis of ion binding to calmodulin OBL; conditions: equilibrium analysis of AC response, 100 times diluted PBS buffer
T1 construct: purchased Sigma Aldrich
Excerpt: Calmodulin is a calcium sensing protein that plays a central role in cell signaling, muscle contraction and cell division. We fabricated a calmodulin OBL and flowed different concentrations of Ca^2+ over the surface. The binding of Ca^2+ to calmodulin would lead to charge and conformation change of the OBL but with small mass change (FIG. 7a). […] Thus, we only measured the magnitude of the equilibrium state. […] We note that calmodulin is negatively charged, so Ca^2+ binding should decrease the amplitude of the AC signal. The increase of AC signal in FIG. 7b is due to artifacts in data processing when correcting the background charging. The raw data has decreased signal but much lower signal-to-noise ratio (not shown). Magnesium would also bind to calmodulin with a lower affinity compared with calcium.
(§1) Binding kinetics measurement.

[2] = biological target: KcsA-Kv1.3; assay: SPR-OBL binding kinetics of small molecules to KcsA-Kv1.3 nanodisc on streptavidin OBL; conditions: AC response, 40 times diluted nanodisc buffer
Excerpt: Unlike macromolecules that are inclined to have both mass and charge changes upon binding, small molecules are more likely to have charge change with little mass change. As such, measuring charge could be more sensitive for small molecules. To highlight this advantage of SRR-OBL and its potential for drug screening, we measured two small molecule drug candidates, compound 1 and PAP-1, binding to their target KcsA-Kv1.3, which is a chimeric membrane protein. The KcsA-Kv1.3 was encapsulated in a self-assembled phospholipid bilayer nanodisc that provides a nativelike environment for the membrane proteins to retain the structure and function. Despite the importance of membrane protein as drug targets, measuring the interaction with small molecule drug candidates has been challenging for traditional mass-sensitive technologies, due to the huge mass difference between the small molecule and the membrane protein complex. Before adding samples, 40 times diluted nanodisc buffer was flowed over the surface for 200 seconds to establish the baseline. The binding of the small molecule to KcsA-Kv1.3 nanodisc caused a charge change on the OBL, which leads to an AC response. As mentioned before, small molecule would only introduce a minor mass change. Therefore, the DC response of OBL is not obvious. […] According to a previous study that temperature would influence the binding kinetics between KcsA-Kv1.3 and small molecule due to the effect on the flexibility of lipid bilayer, we repeated the experiment under 30° C. and found the kinetic constants became (2.7±0.5)×10^4 M^−1s^−1, (1.9±0.4)×10^−2 s^−1 and 6.8±1.2×10 2 nM, as shown in FIG. 6c. The results are close to the value in literature. […] To verify the binding was specific, we performed control experiments by directly injecting compound 1 and PAP-1 to a streptavidin OBL without nanodisc at 30° C.
Fabrication of OBL. The sensor chip (a cover glass coated with 43 nm Au) was rinsed by DI water and ethanol for twice. Then it was annealed by hydrogen flame to further remove surface contaminants. To fabricate the streptavidin OBL, the chip was first dipped in a mixture of 1 mM thiol-PEG2k and 100 μM thiol-PEG10k-bioitin in 1×PBS overnight. The chip was dried with N2 and a silicone cell was mounted on the chip surface for holding solution. Next, the surface was incubated in 0.2 mg/mL streptavidin in PBS for 30 mins. The functionalized surface was carefully rinsed with PBS for 6 times. Note that the solution should not be completely removed from the cell during the rinsing process, and any air bubbles should be avoided as well, because the tethered protein could be irreversibly absorbed on the surface once exposed to air. The surface coverage of streptavidin on the PEG layer was measured to be 64%, and 46% of the streptavidin could oscillate effectively. The streptavidin OBL was later used to couple biotinylated proteins. To couple KcsA-Kv1.3 nanodisc, 70 μg/mL biotinylated KcsA-Kv1.3 nanodisc in nanodisc buffer was added to the cell and incubated for 30 min. Similarly, the biotinylated SRCtide was immobilized on the streptavidin OBL by incubating in 33 μg/mL SRCtide in kinase buffer containing 5 mM MgCl2 and 1 mM HEPES (pH 7.4) for 30 mins.
as §1

[3] = biological target: T2, streptavidin OBL (Streptomyces avidinii, UniProt P22629); assay: Control experiment: small molecules injected to streptavidin OBL without nanodisc; type: binding; conditions: streptavidin OBL without nanodisc at 30° C.
T2 construct: purchased Thermo Fisher Scientific
T2 sequence (P22629 37-163 limits assumed): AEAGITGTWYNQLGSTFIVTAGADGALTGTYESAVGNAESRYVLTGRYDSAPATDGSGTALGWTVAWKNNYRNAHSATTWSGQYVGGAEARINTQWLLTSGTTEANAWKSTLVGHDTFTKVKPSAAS
Excerpt: Unlike macromolecules that are inclined to have both mass and charge changes upon binding, small molecules are more likely to have charge change with little mass change. As such, measuring charge could be more sensitive for small molecules. To highlight this advantage of SRR-OBL and its potential for drug screening, we measured two small molecule drug candidates, compound 1 and PAP-1, binding to their target KcsA-Kv1.3, which is a chimeric membrane protein. The KcsA-Kv1.3 was encapsulated in a self-assembled phospholipid bilayer nanodisc that provides a nativelike environment for the membrane proteins to retain the structure and function. Despite the importance of membrane protein as drug targets, measuring the interaction with small molecule drug candidates has been challenging for traditional mass-sensitive technologies, due to the huge mass difference between the small molecule and the membrane protein complex. Before adding samples, 40 times diluted nanodisc buffer was flowed over the surface for 200 seconds to establish the baseline. The binding of the small molecule to KcsA-Kv1.3 nanodisc caused a charge change on the OBL, which leads to an AC response. […]
(§2) Fabrication of OBL. […] The surface coverage of streptavidin on the PEG layer was measured to be 64%, and 46% of the streptavidin could oscillate effectively. […]

[4] = biological target: T3, Src kinase (Homo sapiens, UniProt P12931); assay: SPR-OBL phosphorylation kinetics of SRCtide by Src kinase; type: biochemical; conditions: ATP present
T3 construct: The active full length SRC protein was purchased from Abcam; purchased Abcam
Excerpt: Since SPR-OBL is able to record mass and charge changes at the same time, it is particularly suitable for studying complex enzymatic processes that involve multiple kinetic steps and size and charge changes. Phosphorylation is one of such reactions that includes binding of the kinase to the substrate, adding a phosphate to the substrate, and unbinding of the kinase, where each step accompanies mass or charge change. Despite the importance of phosphorylation in many basic cellular signaling processes and its close relationship with various diseases and cancers, traditional techniques including fluorescence, western blot, and mass spectrometry are unable to resolve the kinetic process in real-time, and each kinetic step needs to be measured separately, limiting the measurement efficiency. In contrast, SPR-OBL can measure multiple steps of the enzyme catalytic reaction in real-time and extract several kinetic parameters in a single measurement. We studied the phosphorylation of SRCtide as an example. SRCtide that was a peptide containing 14 amino acid with the sequence GEEPLYWSFPAKKK (SEQ ID NO: 1) was modified on a streptavidin OBL, which serves as the substrate of the enzyme Src kinase. […]
where E and S are the enzyme and substrate, ES is the complex, and P is the phosphorylated product, respectively; and k denotes the kinetic constant in each step. We measured the SPR-OBL response of different concentrations of Src in the presence of ATP and the results are shown in FIG. 8b. […]
where [E0], [S0] and [P] are concentration of SRC, SRCtide and the product, respectively. The Michaelis constant (KM) and catalytic constant (k2) can be determined to be 4.4 nM and 5.5×10^−4 s^−1 by fitting the AC component (FIG. 8d) to Eq. 1. Knowing KM and k2 the association rate constant (k1) and dissociation rate constant (k−1) can be determined by fitting the DC component (FIG. 8c) to the following equations: […]
as §2

Compound: [Ca+2] [Ca^2+, calcium ion]
- Kd [1]: 1.9 µM

Compound: [Mg+2] [Mg^2+, Magnesium]
- Kd [1]: 35 µM

Compound: O=c1ccc2c(OCCCCOc3ccccc3)c3ccoc3cc2o1 [PAP-1]
- Kd ([2]; 25° C.): 65 ± 11 µM
- ka ([2]; 25° C.): (3.8±0.6)×10^2 M^−1 s^−1
- kd ([2]; 25° C.): (2.3±0.1)×10^−2 s^−1
- Kd ([2]; 30° C.): 210 µM
- ka ([2]; 30° C.): (4.8±0.4)×10^2 M^−1s^−1
- kd ([2]; 30° C.): (9.6±1.1)×10^−2 s^−1
- response on streptavidin OBL (nonspecific binding control) [3]: only small response

Compound: SRCtide: peptide containing 14 amino acid with the sequence GEEPLYWSFPAKKK (SEQ ID NO: 1), substrate of Src kinase
- catalytic constant (k2) ([4]; fit of AC component to Eq. 1 (EQSS)): 0.00055 s⁻¹
- association rate constant (k1) ([4]; fit of DC component): 1.3×10^4
- dissociation rate constant (k−1) ([4]; fit of DC component): 2e-06 s⁻¹
